This is an account of results in article PMC7415757, “Monocrotaline-induced liver toxicity in rat predicted by a combined in vitro physiologically based kinetic modeling approach” (Archives of Toxicology, 2020).

Data set [1] can be described thus: Substrate depletion in incubations with pooled rat liver microsomes. The data set is classed as in vitro ADME, rat (Sprague–Dawley). The protocol:
(§1) After 5 min of pre-incubation in a shaking water bath at 37 °C, the reactions were started by the addition of 1 mM NADPH. The reactions were carried out for 1 h and 2 h for liver and intestinal microsomes, respectively. For each incubation, a corresponding control incubated in the absence of NADPH was included by adding buffer instead of NADPH. To stop the metabolic conversion, 100 µl of ice-cold methanol was added and the sample was put on ice, then centrifuged at 5000 × g for 20 min at 4 °C using a microcentrifuge (CT15RE, VWR, Leuven, Belgium). Supernatants were diluted 200 times in 90% (v/v) acetonitrile and transferred to LC–MS vials. LC–MS analysis was performed using a Shimadzu Nexera XR LC-20AD SR UPLC system in tandem with a Shimadzu LCMS-8040 mass spectrometer (Shimadzu, Kyoto, Japan). From each incubation, 1 µl of supernatant was loaded onto a Luna Omega polar C18 100A LC column (1.6 µm 100 × 2.1 mm, Phenomenex) fitted with a FP polar precolumn (Phenomenex), using a flow rate of 0.3 ml/min. The temperature was set at 40 °C and 5 °C for column and sample, respectively. The mobile phase consisted of ultrapure water (solvent A) and acetonitrile (solvent B) both containing 0.1% (v/v) formic acid. The gradient began with 100% solvent A (0% B) for 1 min to wash away unwanted salts, followed by a linear gradient from 0 to 5% B till 8 min and a further increase to 100% B in 2 min, keeping the elution at 100% B for 0.5 min, then the column was set back to the starting conditions and equlibrated for 3.4 min before the next injection. […] For all incubations, three independent replicates were performed.
(§2) The ratio of Vmax and Km was calculated as the in vitro catalytic efficiency (kcat) expressed in […]. […] The rat liver weight of 8.5 g and small intestine weight of 3.5 g (see Table 1) (Brown et al. [1997]) were used to scaled the in vivo kcat values to values expressed in ml/min/tissue.
A general note: Liver microsomes are a subcellular fraction often used to study metabolism.

Data set [2] can be described thus: Substrate depletion in incubations with pooled rat intestinal microsomes. The data set is classed as in vitro ADME, rat (Sprague–Dawley). The protocol:
as §1, §2

Data set [3] concerns HepaRG cells. The arrangement: method as in Louisse et al. ([2019]). The conditions noted are these: 24 h exposure; ref Louisse et al. ([2019]); cited from earlier work.
Data set [4] has as its system human liver cell line HepaRG. The conditions noted are these: in vitro γH2AX induction potency, ref Louisse et al. ([2019]); cited from earlier work.
Where [5] appears, read: liver, 35 mg microsomal protein/g liver, present study.
The mark [6] stands for this setting: intestine, 20.6 mg microsomal protein/g small intestine, present study.
[7] abbreviates: small intestine, PBK model code.

As a reminder, the Km is the substrate concentration at which the rate is half of its maximum. On to `C[C@H]1C(=O)O[C@@H]2CCN3CC=C(COC(=O)[C@](C)(O)[C@]1(C)O)[C@H]23` [Monocrotaline], for which the Km in data set [1] (Sprague-Dawley, rat, pH 7.4, liver, present study) came out at 9.2 µM; in data set [2] (Sprague-Dawley, rat, pooled rat intestinal microsomes, pH 7.4, intestine, present study) it was 13.4 µM. The “scaled liver kcat, times lower than lasiocarpine” value in data set [1] (liver) is on record as 41.8 times. Moreover, the “scaled liver kcat, times lower than riddelliine” value in data set [1] (liver) was 4.3 times. The Scaled kcat in data set [1] (liver weight 8.5 g, present study) is reported as 1.9 ml/min/ tissue; in data set [1] (setting [5]) it was 0.2 ml/min/g tissue; in data set [2] (setting [6]) it was 0.03 ml/min/g tissue; in data set [2] (small intestine weight 3.5 g, present study), 0.1 ml/min/ tissue. Further, the “Scaled Vmax” value in data set [1] (setting [5]) is 2.1 nmol/min/g tissue; in data set [2] (setting [6]), 0.4 nmol/min/g tissue. The “KmLM1, affinity constant” value in data set [1] (liver, PBK model code) was 9.22 µmol/L. In addition, the “VmaxLM1c, unscaled maximum rate of metabolism” value in data set [1] (liver, PBK model code) worked out at 0.06 nmol/min-1/mg protein. For the same compound, the Vmax is reported as 0.06 nmol/min/mg microsomal protein in data set [1] (liver, present study) and 0.02 nmol/min/mg microsomal protein in data set [2] (intestine, present study). Further, the “KmSiM2, affinity constant” value in data set [2] (setting [7]) amounted to 13.39 µmol/L. Further, in data set [2] (setting [7]), the “VmaxSiM2c, unscaled maximum rate of metabolism” value is given as 0.02 nmol/min-1/mg protein. For the same compound, the “cytotoxicity in HepaRG cells” value in data set [3] is on record as “did not exhibit cytotoxicity”. In data set [4], the potency group result is listed as “group 3”.
